Experimental data reported in patent US11091486B2, “Process for the preparation of pyrazolo[1,5-a]pyrimidines and salts thereof” (Array BioPharma Inc., priority 2016, dated 2021).

Key:
Assay type in all cases: physicochemical
[1] = Salt stability studies, 40° C./75% RH for 1 week, XRPD
Description: Recovered salts were placed in an oven at 40° C./75% RH for 1 week, and the resultant materials were analyzed by XRPD to determine any changes to form or crystallinity.

[2] = Dynamic vapor sorption (DVS); details: at 90% RH
Description: Approximately, 10 mg of sample was placed into a mesh vapor sorption balance pan and loaded into a DVS-1 dynamic vapor sorption balance by Surface Measurement Systems. The sample was subjected to a ramping profile from 40-90% relative humidity (RH) at 10% increments, maintaining the sample at each step until a stable weight had been achieved (99.5% step completion). After completion of the sorption cycle, the sample was dried using the same procedure to 0% RH and then a second sorption cycle back to 40% RH. The weight change during the sorption/desorption cycles were plotted, allowing for the hygroscopic nature of the sample to be determined. XRPD analysis was then carried out on any solid retained.

[3] = Gravimetric vapor sorption (GVS); details: at 90% RH
Description: Approximately 10-20 mg of sample was placed into a mesh vapor sorption balance pan and loaded into an IGASorp Moisture Sorption Analyzer balance by Hiden Analytical. […] After completion of the sorption cycle, the sample was dried using the same procedure to 0% RH, and finally taken back to the starting point of 40% RH. The weight change during the sorption/desorption cycles were plotted, allowing for the hygroscopic nature of the sample to be determined.

[4] = salt recovered from isopropanol

## C[C@@H]1CCc2ncc(F)cc2[C@H]2CCCN2c2ccn3ncc(c3n2)C(=O)N1.Cc1ccc(S(=O)(=O)O)cc1
[1]; salt recovered from acetone
  Post-stability XRPD: changes to form or crystallinity: become amorphous

## C[C@@H]1CCc2ncc(F)cc2[C@H]2CCCN2c2ccn3ncc(c3n2)C(=O)N1.O=C(O)CC(O)(CC(=O)O)C(=O)O [Compound 1 citrate Form A]
[2]
  Hygroscopicity, mass uptake by DVS: around 1.8%
[1]; salt recovered from TBME
  Post-stability XRPD: changes to form or crystallinity: a decrease to crystallinity but no change to form
[1]; salt recovered from acetone
  Post-stability XRPD: changes to form or crystallinity: a decrease to crystallinity but no change to form

## C[C@@H]1CCc2ncc(F)cc2[C@H]2CCCN2c2ccn3ncc(c3n2)C(=O)N1 [Form I, (6R,15R)-9-fluoro-15-methyl-2,11,16,20,21,24-hexaazapentacyclo[16.5.2.0^2,6.0^7,12.0^21,25]pentacosa-1(24),7,9,11,18(25),19,22-heptaen-17-one]
[3]
  Hygroscopicity, mass uptake by GVS: about 0.3%
[2]
  Hygroscopicity, mass uptake by DVS: about 0.7%

## C[C@@H]1CCc2ncc(F)cc2[C@H]2CCCN2c2ccn3ncc(c3n2)C(=O)N1.O=S(=O)(O)c1ccccc1 [besylate pattern 1]
[1]; salt recovered from TBME
  Post-stability XRPD: changes to form or crystallinity: preferred orientation but no changes to form
[1]; salt recovered from THF
  Post-stability XRPD: changes to form or crystallinity: an increase to crystallinity but no changes to form
[1]; salt recovered from ethanol
  Post-stability XRPD: changes to form or crystallinity: a decrease in crystallinity

## C[C@@H]1CCc2ncc(F)cc2[C@H]2CCCN2c2ccn3ncc(c3n2)C(=O)N1.O=C(O)C[C@H](O)C(=O)O [crystalline L-malate]
[1]; salt recovered from TBME
  Post-stability XRPD: changes to form or crystallinity: no change to crystallinity and form

## C[C@@H]1CCc2ncc(F)cc2[C@H]2CCCN2c2ccn3ncc(c3n2)C(=O)N1.O=C(O)/C=C/C(=O)O [crystalline fumarate]
[1]; salt recovered from acetone
  Post-stability XRPD: changes to form or crystallinity: a slight decrease to crystallinity however, no change to form

## CS(=O)(=O)O.C[C@@H]1CCc2ncc(F)cc2[C@H]2CCCN2c2ccn3ncc(c3n2)C(=O)N1 [crystalline mesylate]
[1]; salt recovered from acetone
  Post-stability XRPD: changes to form or crystallinity: no changes to crystallinity or form
[1]; [4]
  Post-stability XRPD: changes to form or crystallinity: a slight increase in crystallinity but no changes to form
[1]; salt recovered from methanol
  Post-stability XRPD: changes to form or crystallinity: a decrease in crystallinity but no changes to form

## C[C@@H]1CCc2ncc(F)cc2[C@H]2CCCN2c2ccn3ncc(c3n2)C(=O)N1.O=C(O)CCC(=O)O [crystalline succinate]
[1]; salt recovered from acetone
  Post-stability XRPD: changes to form or crystallinity: a decrease in crystallinity but no change to form

## C[C@@H]1CCc2ncc(F)cc2[C@H]2CCCN2c2ccn3ncc(c3n2)C(=O)N1 [edisylate]
[1]; [4]
  Post-stability XRPD: changes to form or crystallinity: become amorphous

## C[C@@H]1CCc2ncc(F)cc2[C@H]2CCCN2c2ccn3ncc(c3n2)C(=O)N1.O=C(O)C(=O)O [oxalate]
[1]; salt recovered from ethanol
  Post-stability XRPD: changes to form or crystallinity: a change in crystallinity and form
[1]; salt recovered from methanol
  Post-stability XRPD: changes to form or crystallinity: no change to crystallinity however, changes to form were seen
